Results reported in PMC5698418 (Nature Communications, 2017).
Where a name gives a salt, the structure may show the parent alone. Read-outs that look alike come from different tables or passages of the source.

Test system: BDNF-induced nuclear Arc expression in primary cortical neurons
Assay: Chemogenomic screen: high-content image-based assay of BDNF-induced nuclear Arc expression (96-well)
Type: cell-based, mouse
Method in brief: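 Nuclear Arc immunofluorescence is quantified automatically within an acetyl-H3K9-defined nuclear mask from ×40 images. Cultures are DIV13 mouse forebrain cortical neurons seeded at 30,000 per well and exposed to BDNF plus compound at a final 16.7 µM, with triplicate biological replicates.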

[1] = nuclear Arc-positive cells relative to DMSO + BDNF control, negative values = decrease
[2] = BDNF-induced nuclear Arc expression, primary cortical neurons, chemogenomic screen
[3] = chemogenomic (SMART) screen, BDNF-induced nuclear Arc expression, primary cortical neurons, BDNF control 19.5
[4] = nuclear Arc-positive cells relative to DMSO control (BDNF), negative = decrease

CCN(C)C(=O)Oc1cccc([C@H](C)N(C)C)c1 [Rivastigmine]
Percentage of cell with nuclear Arc immunostaining above 2σ threshold: 33.7% | Fold-change — Normalized to DMSO control (BDNF) [1]: 1.7 fold

OCCN1CCN(CCCN2c3ccccc3Sc3ccc(C(F)(F)F)cc32)CC1 [Fluphenazine]
Percentage of cell with nuclear Arc immunostaining above 2σ threshold [2]: 0.3%

CCOc1cc(CC(=O)N[C@@H](CC(C)C)c2ccccc2N2CCCCC2)ccc1C(=O)O [Repaglinide]
Percentage of cell with nuclear Arc immunostaining above 2σ threshold [3]: 19.5% | Fold-change — Normalized to DMSO control (BDNF) [1]: 1.0 fold

Cn1sc(=O)n(Cc2ccccc2)c1=O [TDZD-8]
Percentage of cell with nuclear Arc immunostaining above 2σ threshold [2]: 1.7% | Fold-change — Normalized to DMSO control (BDNF) [4]: -11.7 fold

CN1C(=O)CC(c2ccccc2)C1=O (centres unmarked) [Phensuximide]
Percentage of cell with nuclear Arc immunostaining above 2σ threshold [3]: 24.8% | Fold-change — Normalized to DMSO control (BDNF) [1]: 1.3 fold

COc1cc2c(NC3CCN(C4CCCCC4)CC3)nc(N3CCCN(C(C)C)CC3)nc2cc1OCCCN1CCCCC1 [UNC 0646]
Percentage of cell with nuclear Arc immunostaining above 2σ threshold [2]: 5.2% | Fold-change — Normalized to DMSO control (BDNF) [4]: -3.7 fold

CC(=C(CCO)SSCC1CCCO1)N(C=O)Cc1cnc(C)nc1N (stereo in doubt) [Fursultiamine]
Percentage of cell with nuclear Arc immunostaining above 2σ threshold: 15.4%

CN(C)CCC[C@@]1(c2ccc(F)cc2)OCc2cc(C#N)ccc21 [Escitalopram oxalate]
Percentage of cell with nuclear Arc immunostaining above 2σ threshold [3]: 26.3% | Fold-change — Normalized to DMSO control (BDNF) [1]: 1.4 fold

CN1C(=O)CCS(=O)(=O)C1c1ccc(Cl)cc1 (centres unmarked) [Chlormezanone]
Percentage of cell with nuclear Arc immunostaining above 2σ threshold: 25.9% | Fold-change — Normalized to DMSO control (BDNF) [1]: 1.3 fold

Cc1ncc(CSSCc2cnc(C)c(O)c2CO)c(CO)c1O [Pyrithioxine]
Percentage of cell with nuclear Arc immunostaining above 2σ threshold [3]: 21.3% | Fold-change — Normalized to DMSO control (BDNF) [1]: 1.1 fold

NC(=O)CN1CCCC1=O [Piracetam]
Percentage of cell with nuclear Arc immunostaining above 2σ threshold [2]: 10.5%

CSc1ccc2c(c1)N(CCC1CCCCN1C)c1ccccc1S2 (centres unmarked) [Thioridazine]
Percentage of cell with nuclear Arc immunostaining above 2σ threshold [2]: 0.0%

Clc1ccc2c(c1)C(N1CCNCC1)=Nc1ccccc1O2 [Amoxapine]
Percentage of cell with nuclear Arc immunostaining above 2σ threshold [3]: 12.9%

C#CCN(C)[C@H](C)Cc1ccccc1 [Selegiline]
Percentage of cell with nuclear Arc immunostaining above 2σ threshold: 29.8% | Fold-change — Normalized to DMSO control (BDNF) [1]: 1.5 fold

COc1cccc([C@H](O)C2CCN(CCc3ccc(F)cc3)CC2)c1OC [Volinanserin]
Percentage of cell with nuclear Arc immunostaining above 2σ threshold [2]: 9.0%

CHIR-98014
Fold-change — Normalized to DMSO control (BDNF): -1.0 fold | Percentage of cell with nuclear Arc immunostaining above 2σ threshold: 19.2%

O=C1c2cc3c(cc2OC2CCCN12)OCCO3 (centres unmarked) [CX-614]
Percentage of cell with nuclear Arc immunostaining above 2σ threshold: 13.1% | Fold-change — Normalized to DMSO control (BDNF) [1]: -1.5 fold

COc1cc(/C=C/C(=O)C(=Cc2ccc(F)c(F)c2)C(=O)/C=C/c2ccc(O)c(OC)c2)ccc1O [3,4-Difluorobenzocurcumin]
Percentage of cell with nuclear Arc immunostaining above 2σ threshold [2]: 1.4% | Fold-change — Normalized to DMSO control (BDNF) [4]: -14.1 fold

O=c1c(O)c(-c2ccc(O)cc2)oc2cc(O)cc(O)c12 [Kaempferol]
Percentage of cell with nuclear Arc immunostaining above 2σ threshold [2]: 4.0%

COc1ccc2c3c([nH]c2c1)C(C)=NCC3 [Harmaline]
Percentage of cell with nuclear Arc immunostaining above 2σ threshold: 28.8% | Fold-change — Normalized to DMSO control (BDNF) [1]: 1.5 fold

O=C(COc1ccc(Cl)cc1)N1CCN(Cc2ccc3c(c2)OCO3)CC1 [Fipexide]
Percentage of cell with nuclear Arc immunostaining above 2σ threshold [3]: 41.7% | Fold-change — Normalized to DMSO control (BDNF) [1]: 2.1 fold

NC(=O)N1c2ccccc2C=Cc2ccccc21 [Carbamazepine]
Percentage of cell with nuclear Arc immunostaining above 2σ threshold [2]: 7.2%

CCN(CC)CCNC(=O)c1cc(Br)c(N)cc1OC [Bromopride]
Percentage of cell with nuclear Arc immunostaining above 2σ threshold [3]: 27.7% | Fold-change — Normalized to DMSO control (BDNF) [1]: 1.4 fold

CNC1CC(c2ccc(Cl)c(Cl)c2)c2ccccc21 (centres unmarked) [Indatraline]
Percentage of cell with nuclear Arc immunostaining above 2σ threshold: 0.0%

CC(=O)Nc1nnc(S(N)(=O)=O)s1 [Acetazolamide]
Percentage of cell with nuclear Arc immunostaining above 2σ threshold [2]: 4.9%

O=C1c2ccccc2S(=O)(=O)N1CCCCN1CCN(c2ncccn2)CC1 [Ipsapirone]
Percentage of cell with nuclear Arc immunostaining above 2σ threshold [3]: 27.4% | Fold-change — Normalized to DMSO control (BDNF) [1]: 1.4 fold

COc1ccc(C(=O)N2CCCC2=O)cc1 [Aniracetam]
Percentage of cell with nuclear Arc immunostaining above 2σ threshold [2]: 8.2%

CN(C)CCCN1c2ccccc2Sc2ccccc21 [Promazine]
Percentage of cell with nuclear Arc immunostaining above 2σ threshold [2]: 9.7%
